Reference: patent US11725037B2, “Peptide dual agonists of GIPR and GLP2R” (University of Copenhagen, priority 2017, dated 2023)
Peptide text beside a SMILES is read from it. * marks the point of attachment. Palmitoyl = CCCCCCCCCCCCCCCC(=O)*

Key:
human GIP receptor = target: T1, human GIP receptor (Homo sapiens, UniProt P48546); assay: cAMP accumulation assay (HitHunter cAMP XS) in transiently transfected COS-7 cells expressing the human GIP receptor; format: cell-based; conditions: for Emax at 10 µM: COS-7, read-out: Emax (10 μM), GIP receptor; for EC50: cAMP, COS-7
T1 construct: host or cells: COS-7 (transient, calcium phosphate; pCMV-Script vector)
T1 sequence (P48546 22-466): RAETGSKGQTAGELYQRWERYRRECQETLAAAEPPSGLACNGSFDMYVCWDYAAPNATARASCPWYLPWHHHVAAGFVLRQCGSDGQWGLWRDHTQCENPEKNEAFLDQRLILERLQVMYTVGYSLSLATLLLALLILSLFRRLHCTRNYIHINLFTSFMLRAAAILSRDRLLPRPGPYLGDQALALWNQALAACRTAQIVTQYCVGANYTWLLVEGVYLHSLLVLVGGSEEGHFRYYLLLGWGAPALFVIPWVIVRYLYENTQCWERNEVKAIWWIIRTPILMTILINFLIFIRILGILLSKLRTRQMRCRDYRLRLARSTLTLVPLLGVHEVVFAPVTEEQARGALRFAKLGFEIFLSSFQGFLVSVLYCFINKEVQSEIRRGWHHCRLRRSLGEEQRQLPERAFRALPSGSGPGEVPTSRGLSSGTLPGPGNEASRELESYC
Protocol: (§1) The day after, the cells were washed twice with Hepes buffered saline (HBS) buffer and incubated with HBS and 1 mM 3-isobutyl-1-methylxanthine (IBMX) for 30 min at 37° C. Ligands were added and incubated for 30 min at 37° C. The HitHunter™ cAMP XS assay (DiscoveRx) was carried out according to the manufacturer's instructions.

human GLP-2 receptor = target: T2, human GLP-2 receptor (Homo sapiens, UniProt O95838); assay: cAMP accumulation assay (HitHunter cAMP XS) in transiently transfected COS-7 cells expressing the human GLP-2 receptor; format: cell-based; conditions: for Emax at 10 µM: COS-7, read-out: Emax (10 μM), GLP-2 receptor; for EC50: logEC50, GLP-2 receptor, cAMP, COS-7
T2 construct: host or cells: COS-7 (transient, calcium phosphate; pCMV-Script vector)
T2 sequence (O95838 1-553): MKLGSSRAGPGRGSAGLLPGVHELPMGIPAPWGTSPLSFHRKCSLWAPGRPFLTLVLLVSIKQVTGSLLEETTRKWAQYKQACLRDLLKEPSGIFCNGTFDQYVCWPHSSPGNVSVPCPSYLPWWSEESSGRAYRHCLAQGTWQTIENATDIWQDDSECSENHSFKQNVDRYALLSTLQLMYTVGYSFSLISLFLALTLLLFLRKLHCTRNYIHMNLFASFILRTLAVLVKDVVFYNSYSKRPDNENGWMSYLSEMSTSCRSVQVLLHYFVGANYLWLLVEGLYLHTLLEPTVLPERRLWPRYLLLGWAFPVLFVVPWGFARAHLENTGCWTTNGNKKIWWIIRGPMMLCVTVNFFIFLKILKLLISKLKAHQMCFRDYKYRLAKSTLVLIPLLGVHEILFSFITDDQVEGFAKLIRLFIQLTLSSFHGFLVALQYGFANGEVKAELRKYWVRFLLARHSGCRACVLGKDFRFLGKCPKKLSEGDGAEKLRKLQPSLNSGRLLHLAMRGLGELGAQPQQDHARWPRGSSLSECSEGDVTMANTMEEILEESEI
Protocol: as §1

[1] = logEC50, GIP receptor, Table 2, log value

| SMILES | Emax at 10 µM (human GIP receptor) [%] | fold (fold change of native GIP), GIP receptor (human GIP receptor; Table 2, EC50 relative to native GIP) [fold] | Emax at 10 µM (human GLP-2 receptor) [%] | fold (fold change of native GLP-2), GLP-2 receptor (human GLP-2 receptor; Table 2, EC50 relative to native GLP-2) [fold] | EC50 (human GLP-2 receptor; Table 2) [nM] | EC50 (human GIP receptor; [1]) [nM] | EC50 (human GIP receptor; EC50(nM), GIP receptor, Table 2) [nM] |
| --- | --- | --- | --- | --- | --- | --- | --- |
| CCCCCCCCCCCCCCCC(=O)NCCCC[C@H](NC(=O)[C@@H](NC(=O)[C@H](CCC(N)=O)NC(=O)[C@@H](NC(=O)[C@H](CC(C)C)NC(=O)[C@H](Cc1c[nH]c2ccccc12)NC(=O)[C@H](CC(N)=O)NC(=O)[C@@H](NC(=O)[C@H](Cc1ccccc1)NC(=O)[C@H](CC(=O)O)NC(=O)[C@H](CCCNC(=N)N)NC(=O)[C@H](C)NC(=O)[C@H](C)NC(=O)[C@H](CC(C)C)NC(=O)[C@H](CC(N)=O)NC(=O)[C@H](CC(=O)O)NC(=O)[C@H](CC(C)C)NC(=O)[C@@H](NC(=O)[C@@H](NC(=O)[C@H](CO)NC(=O)[C@H](Cc1ccc(O)cc1)NC(=O)[C@H](CC(=O)O)NC(=O)[C@H](CO)NC(=O)[C@H](CO)NC(=O)[C@H](Cc1ccccc1)NC(=O)[C@@H](NC(=O)CNC(=O)[C@H](CC(=O)O)NC(=O)[C@H](C)NC(=O)[C@@H](N)Cc1c[nH]cn1)[C@@H](C)O)[C@@H](C)O)[C@@H](C)CC)[C@@H](C)CC)[C@@H](C)CC)[C@@H](C)O)C(=O)N[C@H](C(=O)N[C@H](C(=O)N[C@@H](CC(=O)O)C(=O)O)[C@@H](C)O)[C@@H](C)CC [Co-agonist 23] (H-HADGTFSSDYSTILDNLAARDFINWLIQTK(Palmitoyl)ITD-OH; N-terminus and C-terminus assumed) | 81 | 8.5 | 57 | 1.2 | 1.41 | – | – |
| CC[C@H](C)[C@H](NC(=O)[C@H](Cc1ccccc1)NC(=O)[C@H](CC(=O)O)NC(=O)[C@H](CCCCN)NC(=O)[C@H](C)NC(=O)[C@H](C)NC(=O)[C@H](CC(C)C)NC(=O)[C@H](CC(N)=O)NC(=O)[C@H](CC(=O)O)NC(=O)[C@H](CC(C)C)NC(=O)[C@@H](NC(=O)[C@@H](NC(=O)[C@H](CO)NC(=O)[C@H](Cc1ccc(O)cc1)NC(=O)[C@H](CC(=O)O)NC(=O)[C@H](CO)NC(=O)[C@@H](NC(=O)[C@H](Cc1ccccc1)NC(=O)[C@@H](NC(=O)CNC(=O)[C@H](CC(=O)O)NC(=O)[C@H](C)NC(=O)[C@@H](N)Cc1c[nH]cn1)[C@@H](C)O)[C@@H](C)CC)[C@@H](C)O)[C@@H](C)CC)C(=O)N[C@@H](CC(N)=O)C(=O)N[C@@H](Cc1c[nH]c2ccccc12)C(=O)N[C@@H](CC(C)C)C(=O)N[C@H](C(=O)N[C@@H](CCC(N)=O)C(=O)N[C@H](C(=O)N[C@@H](CCCCN)C(=O)N[C@H](C(=O)N[C@H](C(=O)N[C@@H](CCCCN)C(=O)O)[C@@H](C)O)[C@@H](C)CC)[C@@H](C)O)[C@@H](C)CC [Co-agonist 28] | 100 | – | 112 | – | – | 0.2 | – |
| CCCCCCCCCCCCCCCC(=O)N[C@@H](Cc1c[nH]cn1)C(=O)N[C@@H](C)C(=O)N[C@@H](CC(=O)O)C(=O)NCC(=O)N[C@H](C(=O)N[C@@H](Cc1ccccc1)C(=O)N[C@H](C(=O)N[C@@H](CO)C(=O)N[C@@H](CC(=O)O)C(=O)N[C@@H](Cc1ccc(O)cc1)C(=O)N[C@@H](CO)C(=O)N[C@H](C(=O)N[C@H](C(=O)N[C@@H](CC(C)C)C(=O)N[C@@H](CC(=O)O)C(=O)N[C@@H](CC(N)=O)C(=O)N[C@@H](CC(C)C)C(=O)N[C@@H](C)C(=O)N[C@@H](C)C(=O)N[C@@H](CCCNC(=N)N)C(=O)N[C@@H](CC(=O)O)C(=O)N[C@@H](Cc1ccccc1)C(=O)N[C@H](C(=O)N[C@@H](CC(N)=O)C(=O)N[C@@H](Cc1c[nH]c2ccccc12)C(=O)N[C@@H](CC(C)C)C(=O)N[C@H](C(=O)N[C@@H](CCC(N)=O)C(=O)N[C@H](C(=O)N[C@@H](CCCCN)C(=O)N[C@H](C(=O)N[C@H](C(=O)N[C@@H](CCCCN)C(=O)O)[C@@H](C)O)[C@@H](C)CC)[C@@H](C)O)[C@@H](C)CC)[C@@H](C)CC)[C@@H](C)CC)[C@@H](C)O)[C@@H](C)CC)[C@@H](C)O [Co-agonist 29] | 115 | – | 82 | – | 17.4 | 1.82 | 1.82 |
